According to patent publication US7429659B2, “Furan compounds as histamine H3 modulators” (Janssen Pharmaceutica N.V., priority 2004, dated 2008):
Counter-ions that a name gives are not always drawn.

Target: T1, human histamine H3 receptor (Homo sapiens, UniProt Q9Y5N1)
T1 construct: One μg supercoiled H3 receptor cDNA was added to the cells; expressed in transfected cells; membranes prepared from cell pellets
Experiment: [3H]-N-Methylhistamine binding to membranes of histamine H3 receptor-expressing SK-N-MC cells
Settings: 0.8 nM [3H]-N-methylhistamine, 60 min at 25° C., SK-N-MC cell membranes; Ki=(IC50)/(1+([L]/(KD))
Experimental: Cells were grown to about 70% to 80% confluence and removed from the plate with trypsin and pelleted in a clinical centrifuge. […] One μg supercoiled H3 receptor cDNA was added to the cells and mixed gently. […] Colonies that survived selection were grown and tested. SK-N-MC cells were used because they give efficient coupling for inhibition of adenylate cyclase. The clones that gave the most robust inhibition of adenylate cyclase in response to histamine were used for further study.
Supernatants from an 800 g spin were collected and were recentrifuged at 30,000 g for 30 min. Pellets were re-homogenized in 50 mM Tris/5 mM EDTA (pH 7.4). Membranes were incubated with 0.8 nM [^3H]-N-methylhistamine plus/minus test compounds for 60 min at 25° C. and were harvested by rapid filtration over GF/C glass fiber filters (pretreated with 0.3% polyethylenimine) followed by four washes with buffer. Filters were added to 5 mL of scintillation cocktail, and the signal was then counted on a liquid scintillation counter.

T1 sequence (Q9Y5N1 whole entry): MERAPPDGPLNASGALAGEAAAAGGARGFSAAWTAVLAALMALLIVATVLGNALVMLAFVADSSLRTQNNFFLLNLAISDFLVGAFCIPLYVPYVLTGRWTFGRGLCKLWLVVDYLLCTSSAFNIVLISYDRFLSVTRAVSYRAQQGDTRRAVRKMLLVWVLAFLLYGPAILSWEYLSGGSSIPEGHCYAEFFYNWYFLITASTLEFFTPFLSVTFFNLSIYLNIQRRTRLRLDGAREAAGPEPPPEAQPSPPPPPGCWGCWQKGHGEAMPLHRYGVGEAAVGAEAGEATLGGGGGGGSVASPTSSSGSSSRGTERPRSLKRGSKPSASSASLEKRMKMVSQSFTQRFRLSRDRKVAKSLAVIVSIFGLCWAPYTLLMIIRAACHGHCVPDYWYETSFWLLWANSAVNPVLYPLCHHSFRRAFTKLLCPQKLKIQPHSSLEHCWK

Ki: 64 nM
Compound: CC(C)N1CCN(C(=O)c2ccc(CN3CCC(F)CC3)o2)CC1 [Example 19, [5-(4-Fluoro-piperidin-1-ylmethyl)-furan-2-yl]-(4-isopropyl-piperazin-1-yl)-methanone, fumarate salt]
